The source made the active and inactive calls.
How the values were obtained:
INS1 = test: INS-1E survival protection against cytokine death – cell-based, luminescence, retest, dose response (AID 449756); assay type: functional; conditions: Rattus norvegicus;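 note: cell death triggered by IL-1 beta plus TNF-alpha plus IFN-gamma mixture; protective hits raise ATP signal compared with cytokine alone wells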
Protein RecA = target: T1, Protein RecA (Mycobacterium tuberculosis, UniProt P9WHJ3); test: Fluorescence Cell-Free Homogeneous Dose Retest to Identify Inhibitors of RecA-Intein Splicing Activity. [Related pubchem assays (depositor defined):AID2097, AID2223, AID489010, AID492950]; assay type: functional
T1 sequence (P9WHJ3 whole entry): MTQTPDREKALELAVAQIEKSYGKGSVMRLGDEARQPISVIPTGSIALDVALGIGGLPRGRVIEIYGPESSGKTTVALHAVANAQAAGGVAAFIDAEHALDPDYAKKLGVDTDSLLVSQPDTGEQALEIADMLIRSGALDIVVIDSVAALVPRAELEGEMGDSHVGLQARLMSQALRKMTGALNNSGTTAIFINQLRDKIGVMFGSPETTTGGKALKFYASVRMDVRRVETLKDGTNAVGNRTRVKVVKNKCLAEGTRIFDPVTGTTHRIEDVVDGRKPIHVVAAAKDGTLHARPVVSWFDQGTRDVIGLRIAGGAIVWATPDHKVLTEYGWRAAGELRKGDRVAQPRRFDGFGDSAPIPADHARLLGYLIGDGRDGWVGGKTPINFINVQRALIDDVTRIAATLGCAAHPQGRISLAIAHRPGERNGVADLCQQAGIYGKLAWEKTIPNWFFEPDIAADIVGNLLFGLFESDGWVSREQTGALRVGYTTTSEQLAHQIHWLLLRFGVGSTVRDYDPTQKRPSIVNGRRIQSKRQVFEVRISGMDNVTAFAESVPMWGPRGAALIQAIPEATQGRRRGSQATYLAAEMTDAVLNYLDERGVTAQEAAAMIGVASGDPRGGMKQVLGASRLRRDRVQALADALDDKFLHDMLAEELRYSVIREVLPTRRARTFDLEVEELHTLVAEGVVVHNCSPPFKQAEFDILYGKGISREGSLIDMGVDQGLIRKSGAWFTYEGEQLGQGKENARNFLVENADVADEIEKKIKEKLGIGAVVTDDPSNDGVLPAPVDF

Protein skinhead-1 = target: T2, Protein skinhead-1 (Caenorhabditis elegans, UniProt P34707); assay type: functional
T2 sequence (P34707 whole entry): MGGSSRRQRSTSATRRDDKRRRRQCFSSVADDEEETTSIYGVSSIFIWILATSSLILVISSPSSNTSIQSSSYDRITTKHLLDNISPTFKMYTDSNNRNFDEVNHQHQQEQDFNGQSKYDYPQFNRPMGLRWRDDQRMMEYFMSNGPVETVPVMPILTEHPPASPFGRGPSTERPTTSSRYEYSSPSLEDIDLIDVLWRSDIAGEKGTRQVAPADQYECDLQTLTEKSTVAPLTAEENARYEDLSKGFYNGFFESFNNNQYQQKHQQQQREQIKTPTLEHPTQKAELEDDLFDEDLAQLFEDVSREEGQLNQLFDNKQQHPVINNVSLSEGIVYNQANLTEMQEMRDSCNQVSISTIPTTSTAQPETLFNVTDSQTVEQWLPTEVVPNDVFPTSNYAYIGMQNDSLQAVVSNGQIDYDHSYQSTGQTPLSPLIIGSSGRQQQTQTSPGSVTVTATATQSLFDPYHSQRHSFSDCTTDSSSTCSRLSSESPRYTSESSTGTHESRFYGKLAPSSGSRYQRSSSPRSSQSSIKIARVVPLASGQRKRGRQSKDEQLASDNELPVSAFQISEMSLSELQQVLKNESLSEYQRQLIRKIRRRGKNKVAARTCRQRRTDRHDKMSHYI

SUMO-activating enzyme [1] = target: T3, SUMO-activating enzyme (Homo sapiens, UniProt Q9UBT2); test: blockers of UBC9-mediated SUMO conjugation – biochemical, AlphaScreen, SUMOylation inhibitor project, confirmation (AID 2018); assay type: functional
T3 sequence (Q9UBE0 whole entry): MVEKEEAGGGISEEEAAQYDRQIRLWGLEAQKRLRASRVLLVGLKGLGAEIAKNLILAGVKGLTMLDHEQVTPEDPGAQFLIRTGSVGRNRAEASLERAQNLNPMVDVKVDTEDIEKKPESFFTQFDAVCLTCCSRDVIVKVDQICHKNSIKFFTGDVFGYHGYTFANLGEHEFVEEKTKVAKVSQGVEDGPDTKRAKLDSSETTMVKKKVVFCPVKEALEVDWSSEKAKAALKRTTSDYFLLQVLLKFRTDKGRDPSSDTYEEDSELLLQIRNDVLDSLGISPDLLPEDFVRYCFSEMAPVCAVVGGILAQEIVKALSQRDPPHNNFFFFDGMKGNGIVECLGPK
T3 sequence (Q9UBT2 whole entry): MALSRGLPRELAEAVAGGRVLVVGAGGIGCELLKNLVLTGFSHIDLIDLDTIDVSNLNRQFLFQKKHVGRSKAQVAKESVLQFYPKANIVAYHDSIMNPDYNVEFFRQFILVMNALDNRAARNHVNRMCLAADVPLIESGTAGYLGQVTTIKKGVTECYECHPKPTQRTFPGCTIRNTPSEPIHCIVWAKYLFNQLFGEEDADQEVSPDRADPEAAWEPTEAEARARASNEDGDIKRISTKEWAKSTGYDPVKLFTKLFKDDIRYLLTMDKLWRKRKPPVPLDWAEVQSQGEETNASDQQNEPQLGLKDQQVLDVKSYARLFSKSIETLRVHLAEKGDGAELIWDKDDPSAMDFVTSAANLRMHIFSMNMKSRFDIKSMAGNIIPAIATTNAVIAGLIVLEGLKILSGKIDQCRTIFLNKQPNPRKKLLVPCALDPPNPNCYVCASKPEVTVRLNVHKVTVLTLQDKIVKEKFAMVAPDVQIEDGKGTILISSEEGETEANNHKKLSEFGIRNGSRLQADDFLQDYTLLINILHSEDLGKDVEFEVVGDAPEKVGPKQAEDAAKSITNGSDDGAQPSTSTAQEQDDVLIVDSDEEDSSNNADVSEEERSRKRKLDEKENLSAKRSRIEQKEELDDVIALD

SUMO-activating enzyme [2] = target: T3, SUMO-activating enzyme; test: blockers of SAE1/SAE2–UBC9 SUMO transfer – biochemical, HTRF, uHTS, primary screen (AID 2006); assay type: protein-complex assay
[3] = target: Serine/threonine-protein phosphatase PP1-alpha catalytic subunit (Homo sapiens, UniProt P62136); test: inhibition of protein phosphatase 1 activity – biochemical, fluorescence, dose response (AID 2394)
Chain of Serine/threonine-protein phosphatase PP1-alpha catalytic subunit (P62136 whole entry): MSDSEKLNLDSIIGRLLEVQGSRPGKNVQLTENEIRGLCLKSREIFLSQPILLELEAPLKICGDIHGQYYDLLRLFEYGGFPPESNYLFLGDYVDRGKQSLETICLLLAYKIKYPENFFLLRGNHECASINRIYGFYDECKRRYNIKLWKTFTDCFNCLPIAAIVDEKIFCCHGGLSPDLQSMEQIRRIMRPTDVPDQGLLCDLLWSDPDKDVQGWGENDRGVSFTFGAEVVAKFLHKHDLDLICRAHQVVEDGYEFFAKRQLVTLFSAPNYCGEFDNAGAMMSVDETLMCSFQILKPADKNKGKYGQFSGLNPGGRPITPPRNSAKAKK

[4] = target: T4, Sentrin-specific protease 8 (Homo sapiens, UniProt Q96LD8); assay type: functional
T4 sequence (Q96LD8 whole entry): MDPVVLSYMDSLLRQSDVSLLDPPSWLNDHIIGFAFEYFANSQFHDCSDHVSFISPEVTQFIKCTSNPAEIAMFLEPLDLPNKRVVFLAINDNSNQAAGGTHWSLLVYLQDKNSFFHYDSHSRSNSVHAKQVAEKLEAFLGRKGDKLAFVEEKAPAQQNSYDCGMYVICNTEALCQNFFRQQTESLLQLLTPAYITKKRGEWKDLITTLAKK

[5] = target: T4, Sentrin-specific protease 8; assay type: functional; remark: listed apart in the source
Caspase-3 = target: T5, Caspase-3 (Homo sapiens, UniProt P42574); test: Dose-response confirmation of uHTS inhibitor hits of Sentrin-Specific Protease 8 in a Caspase-3 Fluorescence assay.; assay type: functional
T5 sequence (P42574 whole entry): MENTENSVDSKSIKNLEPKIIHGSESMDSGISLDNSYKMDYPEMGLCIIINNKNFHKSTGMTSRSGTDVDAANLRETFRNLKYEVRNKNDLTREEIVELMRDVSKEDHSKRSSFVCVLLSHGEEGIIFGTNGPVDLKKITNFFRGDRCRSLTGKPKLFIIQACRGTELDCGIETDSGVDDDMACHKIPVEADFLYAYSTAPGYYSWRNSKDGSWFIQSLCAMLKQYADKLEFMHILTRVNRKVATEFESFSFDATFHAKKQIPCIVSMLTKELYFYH

[6] = target: Ribosomal protein S6 kinase alpha-3 (Homo sapiens, UniProt P51812); assay type: functional;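 note: measured within a kinome-wide profiling panel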
[7] = target: Mitogen-activated protein kinase 8 (Homo sapiens, UniProt P45983); assay type: functional;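 note: value comes from one member of a kinome-wide kinase profiling panel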
Chain of Mitogen-activated protein kinase 8 (P45983 whole entry): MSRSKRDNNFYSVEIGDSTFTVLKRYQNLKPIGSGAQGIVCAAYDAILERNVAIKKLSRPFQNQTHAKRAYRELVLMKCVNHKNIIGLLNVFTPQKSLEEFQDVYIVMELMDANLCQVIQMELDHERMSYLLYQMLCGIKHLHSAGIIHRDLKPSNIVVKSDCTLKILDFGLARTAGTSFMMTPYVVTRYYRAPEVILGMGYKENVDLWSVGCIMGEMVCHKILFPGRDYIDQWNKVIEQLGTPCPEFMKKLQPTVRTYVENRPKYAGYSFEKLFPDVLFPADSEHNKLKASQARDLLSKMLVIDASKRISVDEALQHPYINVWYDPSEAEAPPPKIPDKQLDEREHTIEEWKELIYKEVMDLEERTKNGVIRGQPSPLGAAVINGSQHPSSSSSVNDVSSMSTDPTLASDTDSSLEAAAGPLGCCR

[8] = target: Tyrosine-protein kinase JAK3 (Homo sapiens, UniProt P52333); assay type: functional
[9] = target: High affinity nerve growth factor receptor (Homo sapiens, UniProt P04629); assay type: functional;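 note: NTRK1 tested as one member of a kinome-wide profiling panel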
Chain of High affinity nerve growth factor receptor (P04629 whole entry): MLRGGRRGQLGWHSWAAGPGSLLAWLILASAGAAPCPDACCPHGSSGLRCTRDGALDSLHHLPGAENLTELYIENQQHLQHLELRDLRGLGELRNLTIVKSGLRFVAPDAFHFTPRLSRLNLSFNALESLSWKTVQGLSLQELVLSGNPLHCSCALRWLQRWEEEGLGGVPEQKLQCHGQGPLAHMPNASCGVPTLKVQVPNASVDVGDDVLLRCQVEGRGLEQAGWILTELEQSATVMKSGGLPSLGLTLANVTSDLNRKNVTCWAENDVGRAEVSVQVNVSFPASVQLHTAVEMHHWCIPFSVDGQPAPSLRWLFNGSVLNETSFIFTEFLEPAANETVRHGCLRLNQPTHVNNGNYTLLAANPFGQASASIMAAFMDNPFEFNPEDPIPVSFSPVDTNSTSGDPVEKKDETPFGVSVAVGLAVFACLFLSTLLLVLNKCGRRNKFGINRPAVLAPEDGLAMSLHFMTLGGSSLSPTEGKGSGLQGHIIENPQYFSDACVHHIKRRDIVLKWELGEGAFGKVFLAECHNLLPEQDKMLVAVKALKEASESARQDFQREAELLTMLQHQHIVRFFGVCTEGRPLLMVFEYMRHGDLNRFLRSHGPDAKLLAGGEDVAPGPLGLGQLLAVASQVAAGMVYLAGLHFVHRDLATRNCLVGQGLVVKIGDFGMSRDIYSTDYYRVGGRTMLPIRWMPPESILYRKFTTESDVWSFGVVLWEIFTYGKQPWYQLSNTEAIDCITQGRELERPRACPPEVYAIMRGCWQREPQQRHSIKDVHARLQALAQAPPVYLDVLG

Activated CDC42 kinase 1 = Activated CDC42 kinase 1 (Homo sapiens, UniProt Q07912); test: Navigating the Kinome. Panel member name: ACK1; assay type: functional
Chain of Activated CDC42 kinase 1 (Q07912 whole entry): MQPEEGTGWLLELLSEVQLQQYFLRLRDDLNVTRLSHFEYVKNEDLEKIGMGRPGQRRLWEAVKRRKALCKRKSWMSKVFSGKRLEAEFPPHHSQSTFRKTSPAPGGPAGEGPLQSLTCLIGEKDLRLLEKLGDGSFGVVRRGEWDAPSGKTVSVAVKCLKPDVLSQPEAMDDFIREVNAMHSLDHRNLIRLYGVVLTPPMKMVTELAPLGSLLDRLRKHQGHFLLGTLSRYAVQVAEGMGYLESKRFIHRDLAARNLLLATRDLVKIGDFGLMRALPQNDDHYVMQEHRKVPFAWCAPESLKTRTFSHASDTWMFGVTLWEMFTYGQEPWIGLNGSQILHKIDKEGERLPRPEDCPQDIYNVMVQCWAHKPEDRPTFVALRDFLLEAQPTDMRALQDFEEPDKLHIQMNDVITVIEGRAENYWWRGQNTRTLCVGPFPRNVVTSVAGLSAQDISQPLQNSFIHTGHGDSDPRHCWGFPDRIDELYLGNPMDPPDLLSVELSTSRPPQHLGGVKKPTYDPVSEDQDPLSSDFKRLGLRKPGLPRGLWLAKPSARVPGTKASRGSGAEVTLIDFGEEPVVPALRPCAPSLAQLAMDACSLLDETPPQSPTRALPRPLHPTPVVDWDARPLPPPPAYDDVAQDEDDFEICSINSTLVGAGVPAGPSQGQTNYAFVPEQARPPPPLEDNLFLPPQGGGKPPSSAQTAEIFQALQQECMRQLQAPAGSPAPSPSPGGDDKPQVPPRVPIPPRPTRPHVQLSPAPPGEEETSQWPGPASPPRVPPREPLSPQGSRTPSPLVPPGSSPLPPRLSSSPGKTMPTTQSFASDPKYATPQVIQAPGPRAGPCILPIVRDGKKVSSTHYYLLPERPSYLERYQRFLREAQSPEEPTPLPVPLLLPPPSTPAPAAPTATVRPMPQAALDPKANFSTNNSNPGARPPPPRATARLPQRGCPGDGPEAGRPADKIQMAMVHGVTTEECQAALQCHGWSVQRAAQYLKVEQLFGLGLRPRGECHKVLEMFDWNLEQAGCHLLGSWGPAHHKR

[10] = target: Insulin-like growth factor 1 receptor (Homo sapiens, UniProt P08069); test: Navigating the Kinome. Panel member name: IGF1R; assay type: functional
Chain of Insulin-like growth factor 1 receptor (P08069 31-736 limits assumed): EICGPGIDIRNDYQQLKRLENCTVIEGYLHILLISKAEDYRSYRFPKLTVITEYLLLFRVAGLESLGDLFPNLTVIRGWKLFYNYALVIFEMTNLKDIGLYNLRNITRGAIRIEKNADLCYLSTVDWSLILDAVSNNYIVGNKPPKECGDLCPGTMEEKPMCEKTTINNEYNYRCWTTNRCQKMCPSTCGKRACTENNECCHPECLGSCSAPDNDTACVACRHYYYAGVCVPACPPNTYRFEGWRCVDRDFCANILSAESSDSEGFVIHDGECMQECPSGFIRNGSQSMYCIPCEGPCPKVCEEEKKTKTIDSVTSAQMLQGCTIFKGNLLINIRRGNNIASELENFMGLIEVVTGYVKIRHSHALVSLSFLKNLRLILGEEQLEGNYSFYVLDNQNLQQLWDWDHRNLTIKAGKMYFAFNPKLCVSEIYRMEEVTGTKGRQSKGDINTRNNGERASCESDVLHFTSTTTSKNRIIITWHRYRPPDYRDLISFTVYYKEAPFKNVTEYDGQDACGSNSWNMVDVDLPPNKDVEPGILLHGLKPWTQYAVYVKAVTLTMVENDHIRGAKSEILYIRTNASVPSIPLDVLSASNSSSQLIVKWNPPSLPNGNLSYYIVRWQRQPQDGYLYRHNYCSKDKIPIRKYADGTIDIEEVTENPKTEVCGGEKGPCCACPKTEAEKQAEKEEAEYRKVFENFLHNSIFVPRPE
Chain of Insulin-like growth factor 1 receptor (P08069 741-1367 limits assumed): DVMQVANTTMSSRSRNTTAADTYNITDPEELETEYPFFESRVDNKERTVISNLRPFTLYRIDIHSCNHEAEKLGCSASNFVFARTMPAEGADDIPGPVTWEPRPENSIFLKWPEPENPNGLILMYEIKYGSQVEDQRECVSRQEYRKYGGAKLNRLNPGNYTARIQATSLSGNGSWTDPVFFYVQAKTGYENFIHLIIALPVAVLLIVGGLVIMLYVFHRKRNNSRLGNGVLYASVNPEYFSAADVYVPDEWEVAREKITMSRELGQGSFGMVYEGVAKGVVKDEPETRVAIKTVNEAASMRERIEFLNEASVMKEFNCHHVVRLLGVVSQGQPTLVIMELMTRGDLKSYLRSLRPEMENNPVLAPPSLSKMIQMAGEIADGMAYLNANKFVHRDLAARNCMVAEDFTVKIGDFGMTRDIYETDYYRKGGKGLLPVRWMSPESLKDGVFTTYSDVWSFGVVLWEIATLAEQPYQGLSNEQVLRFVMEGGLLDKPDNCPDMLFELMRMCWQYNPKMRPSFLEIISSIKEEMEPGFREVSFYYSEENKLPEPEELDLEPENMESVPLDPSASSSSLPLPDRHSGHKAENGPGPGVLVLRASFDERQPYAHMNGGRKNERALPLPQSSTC

[11] = target: Rho-associated protein kinase 1 (Homo sapiens, UniProt Q13464); assay type: functional;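 note: measured within a broad kinome-wide panel profiling many kinases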
[12] = target: Calcium/calmodulin-dependent protein kinase type II subunit alpha (Homo sapiens, UniProt Q9UQM7); test: Navigating the Kinome. Panel member name: CAMK2A; assay type: functional
[13] = target: Platelet-derived growth factor receptor beta (Homo sapiens, UniProt P09619); assay type: functional;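 note: value comes from a kinome panel, with PDGFRB tested as one panel member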

With CCN(CC)CCOc1ccc2c(c1)C(=NNC(=O)c1ccccn1)c1cc(OCCN(CC)CC)ccc1-2 the AC50 (INS1) was 2.97 µM (active).

O=C(NC1=C(Nc2ccc(F)cc2)C(=O)c2ccccc2C1=O)c1ccc(Cl)cc1 was tested, and the EC50 (Protein RecA) was 25.9 µM (inconclusive) and the AC50 (INS1) was 5.26 µM (active).

For O=C(O)c1ccc2c(c1)[C@@H]1C=CC[C@@H]1[C@H](c1ccccn1)N2, the IC50 (Protein skinhead-1) was > 100 µM (inactive).

For Oc1nc(Nc2ccc(F)cc2)cc2ccccc12, the IC50 (SUMO-activating enzyme [1]) was 1.12 µM (active), the IC50 (SUMO-activating enzyme [2]) was 3.38 µM (active) and the EC50 (Protein RecA) was 1.21 µM (active).

In the case of CN(C)c1cc(N/N=C\c2ccccc2)nc(N(C)C)n1, the IC50 [3] is reported as > 67 µM (not active), the IC50 (SUMO-activating enzyme [1]) is reported as 1.6 µM (active) and the IC50 (SUMO-activating enzyme [2]) is reported as 15.5 µM (active). For the same compound, the IC50 [4] was 0.368 µM (active), the IC50 [5] was 0.661 µM (active) and the IC50 (Caspase-3) was 50.7 µM (active).

For O=C1Nc2cc(-c3ccc(O)cc3)ccc2C1=Cc1ccc[nH]1, the Ki [6] was 0.0316 µM (active), the Ki [7] was > 5.01 µM (inactive) and the Ki [8] was 0.02 µM (active). For the same compound, the Ki [9] was 2 µM (active), the Ki (Activated CDC42 kinase 1) was > 3.98 µM (inactive) and the Ki [10] was > 2.51 µM (inactive). The Ki [11] was > 3.98 µM (inactive) and the Ki [12] was 2.51 µM (active).

With NC(COc1cncc(-c2ccc3c(c2)C(=Cc2ccc[nH]2)C(=O)N3)c1)Cc1ccccc1 (stereo not given) the Ki [7] was 1.26 µM (active), the Ki [8] was 0.02 µM (active) and the Ki [9] was 0.0631 µM (active). The Ki (Activated CDC42 kinase 1) was 1.58 µM (active), the Ki [13] was 0.00316 µM (active) and the Ki [10] was 1 µM (active). The Ki [11] was 0.00398 µM (active) and the Ki [12] was 0.0631 µM (active).

In the case of O=C1Cc2cc(-c3ccccc3)cnc2N1, the Ki [13] is reported as 50.1 µM (active).

Reference: ChEMBL document CHEMBL1201862, “PubChem BioAssay data set” (2004)
